Our source for the TGI and GI50 values is PubChem BioAssay (NCI).

Among the test systems are M14 melanoma; SF-539 CNS; HCT-15 colon; OVCAR-3 ovarian; COLO 205 colon; 786-0 renal; TK-10 renal; NCI-H226 lung; ACHN renal; HL-60(TB) leukemia; MOLT-4 leukemia.
Holding throughout (test): NCI tumour cell line growth inhibition, 48 h

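A five-concentration, 48-hour dose response in 96-well plates underlies each endpoint, interpolated linearly between surrounding concentrations. GI50: concentration for 50% inhibition of growth. Definition used: TGI = concentration required for complete inhibition of growth.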

As to `COc1cc(C(=O)OC2CC34CCNC35CC(OC5(OC)C2O)c2cc3c(cc24)OCO3)ccc1O` (centres undefined), the TGI with M14 melanoma, with SF-539 CNS, in the experiment on HCT-15 colon, in the experiment on OVCAR-3 ovarian, with COLO 205 colon and in the experiment with 786-0 renal was over 100 µM each time. For the same molecule, the TGI in the experiment on TK-10 renal, with NCI-H226 lung, in the experiment on ACHN renal, in the experiment on HL-60(TB) leukemia and in the experiment on MOLT-4 leukemia was over 100 µM in each case.
For `COC1(C)CNCC(C)(C)NC(=O)C(C)(OC)CNCC(C)(C)NC1=O` (centres undefined), the TGI in the experiment on M14 melanoma, in the experiment on SF-539 CNS, with HCT-15 colon, with OVCAR-3 ovarian, in the experiment with COLO 205 colon and with 786-0 renal was over 100 µM each time. Also, the TGI in the experiment with TK-10 renal, in the experiment with NCI-H226 lung, in the experiment on ACHN renal, in the experiment on HL-60(TB) leukemia and in the experiment on MOLT-4 leukemia was over 100 µM in each case.
With `COC(=O)C1=COC2OC3CC1C2C(C)O3` (centres undefined), the TGI in the experiment with M14 melanoma, in the experiment on SF-539 CNS, in the experiment on HCT-15 colon, in the experiment on OVCAR-3 ovarian, in the experiment on COLO 205 colon and with 786-0 renal was over 100 µM each time. Also, the TGI with TK-10 renal, in the experiment with NCI-H226 lung, with ACHN renal, in the experiment on HL-60(TB) leukemia and with MOLT-4 leukemia was over 100 µM each time.
On to `Cc1ccc2c(c1)CC1(C2)Cc2ccc(C)cc2C1=O` (centres undefined), for which the TGI with M14 melanoma is 71.6 µM; in the experiment on SF-539 CNS, 87.3 µM; in the experiment with HCT-15 colon, 79.5 µM; in the experiment with OVCAR-3 ovarian, over 100 µM; in the experiment on COLO 205 colon it was 44.3 µM; in the experiment with 786-0 renal it was 63 µM. Also, the TGI in the experiment on TK-10 renal was over 100 µM; with NCI-H226 lung, 61.6 µM; in the experiment on ACHN renal, over 100 µM; in the experiment on HL-60(TB) leukemia, 63.4 µM; in the experiment on MOLT-4 leukemia it was 45.7 µM.
Turning to `CCOC(=O)CCc1ccc(NC(=O)/C=C/c2ccc([N+](=O)[O-])o2)cc1`, the TGI came to 2.43 µM with M14 melanoma; 3.99 µM in the experiment with SF-539 CNS; 4.05 µM with HCT-15 colon; 2.88 µM in the experiment with OVCAR-3 ovarian; 5.29 µM with COLO 205 colon; 1.72 µM with 786-0 renal. Further, the TGI came to 4.07 µM in the experiment with TK-10 renal; 25.5 µM in the experiment with NCI-H226 lung; 2.73 µM in the experiment on ACHN renal; 0.481 µM in the experiment with HL-60(TB) leukemia; 0.547 µM with MOLT-4 leukemia.
Turning to `CCCCCCCCCCCCCCCCCCOCC(O)CO` (centres undefined), the TGI in the experiment with SF-539 CNS was over 25 µM; in the experiment on HCT-15 colon, over 25 µM; in the experiment on OVCAR-3 ovarian, over 25 µM; with COLO 205 colon, over 25 µM; in the experiment with NCI-H226 lung, over 24.2 µM; in the experiment on HL-60(TB) leukemia it was over 21.4 µM. Further, the TGI with MOLT-4 leukemia is over 25 µM.
Turning to `CCOC(=O)c1csc(-c2cn(C)c3c2C(=O)C(OC)=CC3=O)n1`, the TGI is 63.3 µM with M14 melanoma; over 82.9 µM with SF-539 CNS; over 100 µM with HCT-15 colon; over 31.9 µM in the experiment on OVCAR-3 ovarian; over 89.6 µM in the experiment on COLO 205 colon; over 100 µM in the experiment with 786-0 renal. For the same molecule, the TGI in the experiment with TK-10 renal, in the experiment on NCI-H226 lung, in the experiment on ACHN renal, in the experiment with HL-60(TB) leukemia and in the experiment on MOLT-4 leukemia was over 100 µM each time.
For the molecule `CC12CCC(=O)[C@@]1(C)CCCC2O` (some centres undefined), the TGI with M14 melanoma, in the experiment on SF-539 CNS, in the experiment with HCT-15 colon, in the experiment on COLO 205 colon, in the experiment with 786-0 renal and with TK-10 renal was over 100 µM each time. Also, the TGI in the experiment with NCI-H226 lung, in the experiment with ACHN renal, in the experiment on HL-60(TB) leukemia and in the experiment on MOLT-4 leukemia was over 100 µM in each case.
In the case of `N[C@H]1CCN(c2c(F)cc3c(=O)c(C(=O)O)cn4c3c2Oc2c-4ccc3c2ccc2ccccc23)C1`, the TGI with M14 melanoma was over 100 µM; with SF-539 CNS, over 100 µM; in the experiment with HCT-15 colon, over 51.3 µM; with OVCAR-3 ovarian it was over 100 µM; in the experiment on COLO 205 colon, over 100 µM; in the experiment on 786-0 renal, over 36.6 µM. Also, the TGI in the experiment on NCI-H226 lung was over 100 µM; in the experiment with ACHN renal, over 24.4 µM; in the experiment on HL-60(TB) leukemia, over 85.6 µM; in the experiment on MOLT-4 leukemia it was over 100 µM. In the experiment on MOLT-4 leukemia, the GI50 is 0.266 µM.
Take `NC(=O)NC(=O)c1cccc(NC(=O)CCl)c1`: the TGI is 1.5 µM with SF-539 CNS; 9.73 µM with HCT-15 colon; 1.44 µM with OVCAR-3 ovarian; 2.2 µM in the experiment with COLO 205 colon; 3.91 µM in the experiment with 786-0 renal; 6.76 µM in the experiment on TK-10 renal. Moreover, the TGI was 5.28 µM in the experiment with NCI-H226 lung, 12.9 µM in the experiment with ACHN renal, 1.97 µM in the experiment on HL-60(TB) leukemia and 15.4 µM in the experiment with MOLT-4 leukemia.
For the molecule `COC1(OC)C2C=CC1C([C@](C)(N)CO)C2` (some centres undefined), the TGI in the experiment on M14 melanoma, with SF-539 CNS, in the experiment with OVCAR-3 ovarian, in the experiment with COLO 205 colon, with 786-0 renal and with TK-10 renal was over 100 µM throughout. Moreover, the TGI in the experiment with NCI-H226 lung, in the experiment with ACHN renal, in the experiment on HL-60(TB) leukemia and in the experiment on MOLT-4 leukemia was over 100 µM each time.
As to `Nn1c(CCCCCCCCc2n[nH]c(=S)n2N)n[nH]c1=S`, the TGI with M14 melanoma, in the experiment on SF-539 CNS, with HCT-15 colon, with OVCAR-3 ovarian, with COLO 205 colon and in the experiment with 786-0 renal was over 100 µM throughout. The TGI in the experiment with NCI-H226 lung, with ACHN renal, in the experiment with HL-60(TB) leukemia and in the experiment with MOLT-4 leukemia was over 100 µM throughout.
For `CCCC(C(=O)Nc1cccc2[nH]cnc12)C(=O)OCC` (centres undefined), the TGI in the experiment on M14 melanoma, with SF-539 CNS, in the experiment with HCT-15 colon, with OVCAR-3 ovarian, in the experiment on 786-0 renal and in the experiment with TK-10 renal was over 100 µM each time. The TGI with NCI-H226 lung, with ACHN renal, in the experiment with HL-60(TB) leukemia and with MOLT-4 leukemia was over 100 µM each time.
